# Test results from patent publication US5298494A, “Monosaccharides having anti-proliferation and anti-inflammatory activity, compositions and uses thereof” (Greenwich Pharmaceuticals Incorporated, priority 1993, dated 1994).
# Like-named read-outs stand apart in the source and are kept apart here.
# Columns and labels:
# [1] = tested on: T cell proliferation in mouse spleen cell mixed lymphocyte cultures; assay: Mixed Lymphocyte Reaction (MLR) assay; assay type: cell-based, mouse (Balb/c responder, C57B1/6 stimulator); details: for inhibition at 3 µM / inhibition at 10 µM / inhibition at 30 µM / inhibition at 100 µM / inhibition at 300 µM: Mus musculus, Lymphocyte, read-out: % Change From Control, MLR
# Excerpt: The pharmacologic assays performed to determine the immunomodulatory effects of the experimental compounds in vitro include the Mixed Lymphocyte Reaction (MLR) and the ConA blastogenesis assay. These assays were used to determine the inhibitory effects of the compounds of the invention on T lymphocyte activation and proliferation. Since inflammation at the cellular level is characterized by T lymphocyte recruitment, activation and proliferation, these assays are appropriate to use as screens for novel compounds having therapeutic potential in the treatment of disorders in which inflammatory mechanisms are involved.
# The MLR is a classical assay used to measure T cell function by studying the proliferative response of T cells which are activated in vitro by genetically disparate stimulator cells. This is accomplished by co-culturing spleen cells from two different strains of mice. Splenic T cell proliferation occurs as a result of cellular activation signals generated by the ongoing cellular interactions.
# Balb/c mice were euthanised by cervical dislocation and their spleens removed. Single cell suspensions of the spleens were prepared in culture medium (hepes buffered RPMI-1640 supplemented with 10% fetal calf serum, 2mM glutamine, 500 units penicillin/ streptomycin, and 4×10^-5 M 2-mercaptoethanol) using a Teflon pestle. The cells were centrifuged at 1500 rpm and the pellets resuspended in ACT (0.15M tris, 0.14M ammonium chloride, pH 7.2) in order to lyse the red blood cells. After a 5 minute incubation in a 37 C. waterbath, the cells were resuspended in culture medium and counted. C57B1/6 spleen cells which were used as stimulator cells, were also prepared by this method. The stimulator cells were treated with 100 ug/ml of mitomycin c for 1 hour at 37 C. (to inhibit stimulatory cell proliferation) and were then washed 5 times in culture medium. The proliferative responses were measured by culturing 2.5×10^5 responder cells with 5×10^5 stimulatory cells in 96 well microtiter plates in the presence or absence of various doses of test compounds or vehicle (DMSO). Syngeneic control cultures using mitomycin c treated Balb/c spleen cells as stimulator cells were also run. All cultures were run in triplicate.
# Solutions of compounds of the present invention in DMSO were prepared at a stock concentration of 120 Mm. Dilutions were made in culture medium to the following concentrations: 3, 10, 30, 100, and 300 uM. The vehicle (DMSO) was used as a negative control.
# After incubation of for 5 days at 37 C. with 5% CO2, the amount of cell proliferation was measured by adding 20 ul of MTT (3-[4,5-dimethylthiazol-2-yl]-2,5diphenyl-tetrazolium bromide) (10 mg/ml in phosphate buffered saline) to each well. Plates were incubated for 4 hours at 37 C., after which 180 ul of 10% sodium dodecyl sulphate in phosphate buffered saline was added. After an overnight incubation, the optical density (OD) of each well was read on a Molecular Devices microplate reader at 570-650 nm. The results were determined by calculating the difference between the means of the allogeneic cultures and the means of the syngenic cultures for each test article concentration. Differences of the test article groups were compared to the control group and the percent change from the control was determined.
# [2] = tested on: T lymphocytes (normal mouse spleen cells) stimulated with ConA; assay: Mouse Spleen Cell ConA Blastogenesis Assay; assay type: cell-based, mouse (C57Bl/6); details: Mus musculus, T-lymphocyte; for inhibition at 1 µg/mL: compound 1 ug/ml; for inhibition at 2.5 µg/mL: compound 2.5 ug/ml; for inhibition at 10 µg/mL: compound 10 ug/ml; for inhibition at 25 µg/mL: compound 25 ug/ml; for inhibition at 0.1 µg/mL: compound 0.1 ug/ml
# Excerpt: It is well known that several plant lectins, when cultured in vitro with lymphocytes, stimulate cellular activation and proliferation. Concanavolin, (ConA) selectively stimulates the blastogenic response of T lymphocytes.
# Six to 8 week old male C57Bl/6 mice were purchased from Harlan Sprague Dawley (Indianapolis, Ind.).
# Spleens were removed and were homogenized to obtain a single cell suspension. Erythrocytes were lysed by hypotonic shock. Upon determination of the viability and concentration of the lymphoid cells, they were adjusted to 4×10^6 cells/ml in culture medium (RPMI-1640) supplemented with 10% fetal bovine serum; 100 ug/ml streptomycin; 100 U/ml penicillin, 0.2M hepes buffer; 5×10^-5 M 2-mercaptoethanol and 2 mM glutamine). seeded into microtiter plate wells at 2×10^5 cells/0.050 ml/well. To these cultures were added various doses of experimental compounds and ConA at a final concentration of 4 or 1 ug/ml. Control cultures consisted of cells, ConA and culture medium containing the vehicle, DMSO only. […] For the testing of the methyl 1,3-O-isopropylidene-6-O-n-heptyl-α-D-fructofuranoside compound indomethacin and NDGA were used as controls. All cultures were run in triplicate.
# Solutions of compounds of the invention in DMSO were prepared and dilutions were made in culture medium. Assay concentrations were either: 1, 2.5, 10, 25, 100, 300 and 750 ug/ml or 0.001, 0.01, 0.1, 1, 2.5, 10, 25 and 100 ug/ml.
# Cultures were incubated for 3 days at 37° C. in a humidified atmosphere of 5% of CO2 in air. For the last 18 hours of culture, 1 uCi of ^3 H-thymidine was also incubated in each well. The cells were precipitated by a multi-channel harvester. The amount of ^3 H-thymidine incorporated by the cultures, as a measure of cell proliferation, was measured in a liquid scintillation counter. The amount of radioactive incorporation is proportional to the amount of cellular proliferation in individual wells. The students T test was used to determine the significance of the difference between experimental and control values.
# [3] = ConA 1 ug/ml, read-out: % change from control, ConA blastogenic response
# [4] = ConA 1 ug/ml, compound 100 ug/ml, read-out: % change from control, ConA blastogenic response
# [5] = ConA 4 ug/ml, read-out: % change from control, ConA blastogenic response
# [6] = ConA 4 ug/ml, compound 100 ug/ml, read-out: % change from control, ConA blastogenic response
# [7] = ConA 1 ug/ml, 0.01 ug/ml, read-out: % Change from Control (Table II)
# [8] = ConA 1 ug/ml, compound 0.01 ug/ml, read-out: % change from control, ConA blastogenic response
# [9] = ConA 4 ug/ml, 0.01 ug/ml, read-out: % Change from Control (Table II)
# [10] = ConA 4 ug/ml, compound 0.01 ug/ml, read-out: % change from control, ConA blastogenic response
SMILES,"inhibition at 1 µg/mL [2, 3] [%]","inhibition at 2.5 µg/mL [2, 3] [%]","inhibition at 10 µg/mL [2, 3] [%]","inhibition at 25 µg/mL [2, 3] [%]","inhibition at 100 µg/mL [2, 4] [%]","inhibition at 1 µg/mL [2, 5] [%]","inhibition at 2.5 µg/mL [2, 5] [%]","inhibition at 10 µg/mL [2, 5] [%]","inhibition at 25 µg/mL [2, 5] [%]","inhibition at 100 µg/mL [2, 6] [%]",Mean O.D. Allogenic ([1]; 3 um) [O.D.],Mean O.D. Syngeneic ([1]; 3 um) [O.D.],Mean O.D. Allogenic ([1]; 10 um) [O.D.],Mean O.D. Syngeneic ([1]; 10 um) [O.D.],Mean O.D. Allogenic ([1]; 30 um) [O.D.],Mean O.D. Syngeneic ([1]; 30 um) [O.D.],Mean O.D. Allogenic ([1]; 100 um) [O.D.],Mean O.D. Syngeneic ([1]; 100 um) [O.D.],Mean O.D. Allogenic ([1]; 300 um) [O.D.],Mean O.D. Syngeneic ([1]; 300 um) [O.D.],other results
"CCCCCCCCCCCCOC1C(C(O)CO)OC2OC(C)(C)OC21 [IIa, 1,2-O-Isopropylidene-3-O-n-dodecyl-α-D-glucofuranose]",21,60,95,99,100,33,50,83,94,100,,,,,,,,,,,"% Change From Control, MLR ([1]; Table X, 3 ugm): -19%; % Change From Control, MLR ([1]; Table X, 10 ugm): -40%; Mean O.D. Allogenic ([1]; Table X, 10 ugm): 0.185 O.D.; Mean O.D. Syngeneic ([1]; Table X, 10 ugm): 0.135 O.D.; % Change From Control, MLR ([1]; Table X, 30 ugm): 23%; Mean O.D. Allogenic ([1]; Table X, 30 ugm): 0.158 O.D.; Mean O.D. Syngeneic ([1]; Table X, 30 ugm): 0.056 O.D.; % Change From Control, MLR ([1]; Table X, 100 ugm): -86%; % Change From Control, MLR ([1]; Table X, 300 ugm): -96%; strong non-dose dependent inhibition in MLR ([1]; several concentrations): greater than -50 % of control; inhibition at 100 µg/mL ([2]; 100 ug/ml, read-out: strong inhibition of ConA stimulated T lymphocyte proliferation): < 50%"
"CCCCCCCOC[C@H]1O[C@](COCC)(OC)[C@@H](OCC)[C@@H]1O [Ib, methyl 1,3-di-O-ethyl-6-O-heptyl-α-D-fructofuranoside]",72,92,96,97,99,67,68,76,86,99,0.319,0.162,0.382,0.194,0.372,0.185,0.353,0.223,0.265,0.189,"inhibition at 3 µM ([1]; 3 um): 18%; inhibition at 10 µM ([1]; 10 um): 2%; inhibition at 30 µM ([1]; 30 um): 3%; inhibition at 100 µM ([1]; 100 um): 32%; inhibition at 300 µM ([1]; 300 um): 60%; inhibition at 0.01 µg/mL [2, 7]: 55%; inhibition at 0.01 µg/mL [2, 8]: 57%; inhibition at 0.1 µg/mL [2, 3]: 66%; inhibition at 0.01 µg/mL [2, 9]: 25%; inhibition at 0.01 µg/mL [2, 10]: 35%; inhibition at 0.1 µg/mL [2, 5]: 45%"
"CCCCCCCO[C@@H]1[C@@H](CO)O[C@@]2(OC)COC(C)(C)O[C@@H]12 [Ic, methyl 1,3-O-isopropylidene-4-O-heptyl-α-D-fructofuranoside]",19,21,79,99,100,35,51,91,99,100,0.207,0.096,0.198,0.106,0.200,0.148,0.163,0.077,0.034,0.159,"inhibition at 3 µM ([1]; 3 um): -34%; inhibition at 10 µM ([1]; 10 um): -11%; inhibition at 30 µM ([1]; 30 um): 37%; inhibition at 100 µM ([1]; 100 um): -4%; inhibition at 300 µM ([1]; 300 um): 251%; inhibition at 0.01 µg/mL [2, 7]: -11%; inhibition at 0.01 µg/mL [2, 8]: -8%; inhibition at 0.1 µg/mL [2, 3]: 3%; inhibition at 0.01 µg/mL [2, 9]: 8%; inhibition at 0.01 µg/mL [2, 10]: -14%; inhibition at 0.1 µg/mL [2, 5]: 8%"
"CCCCC/C=C\COC[C@H]1O[C@@]2(OC)COC(C)(C)O[C@H]2[C@@H]1OC/C=C\CCCCC [If, methyl 1,3-O-isopropylidene-4,6-di-O-(cis,2-octenyl)-α-D-fructofuranoside]",14,25,74,85,4,26,42,79,87,88,0.195,0.140,0.199,0.134,0.199,0.164,0.102,0.025,0.032,0.022,"inhibition at 3 µM ([1]; 3 um): 34%; inhibition at 10 µM ([1]; 10 um): 22%; inhibition at 30 µM ([1]; 30 um): 58%; inhibition at 100 µM ([1]; 100 um): 7%; inhibition at 300 µM ([1]; 300 um): 88%; inhibition at 0.01 µg/mL [2, 7]: 8%; inhibition at 0.01 µg/mL [2, 8]: -6%; inhibition at 0.1 µg/mL [2, 3]: 2%; inhibition at 0.01 µg/mL [2, 9]: 4%; inhibition at 0.01 µg/mL [2, 10]: 0%; inhibition at 0.1 µg/mL [2, 5]: 23%"
